The values that follow come from PMC4398321, “Epoxide based inhibitors of the hepatitis C virus non-structural 2 autoprotease” (Antiviral Research, 2015).

As a reminder, the pEC50 is −log10 of the EC50, conventionally taken in molar units. Read a high pEC50 as a small EC50. A word on the CC50: it is the concentration at which the toxic effect on the cells reaches its halfway point. A low value points to greater toxicity to the cells.

Data set [1] deals with T1, JFH1 NS2–3 (NS2 autoprotease) (Hepatitis C virus genotype 2a, UniProt Q99IB8).
T1 construct: (JFH1 polyprotein residues 906–1209, J4 residues 904–1206); His tag (N); made in house; host or cells: E. coli BL21 (DE3) pLysS, pET23a
Briefly: NS2–3 auto-processing (refolding) assay, JFH1. It counts as biochemical, Hepatitis C virus genotype 2a isolate JFH1. The following applies: for pEC50: JFH1 NS2–3 refolding reaction, 10-point dose response, NS3-FLAG product quantified by western blot. (Immunoblotting shows a protein as a band on a membrane.)
Experimental: NS2–3 at 20 μM in 6 M GdnHCl was diluted 1:100 into Refolding buffer (30% glycerol, 0.5% CHAPS, 250 mM NaCl, 3 mM cysteine, 50 μM ZnCl2, 10 mM DTT, 50 mM HEPES–NaOH, pH 7.0) and incubated 16 h RT. Compounds (133 × final concentration in DMSO) were diluted into Refolding buffer before the addition of NS2–3 to yield required final concentrations. Reactions were halted by the addition of ¼ volume 4 × Laemmli buffer (200 mM Tris–HCl pH 6.8, 40% glycerol, 8% SDS, 0.08% bromophenol blue, 20 mM DTT) and analysed by 15% SDS–PAGE and western blot using M2 anti-FLAG monoclonal antibody (Sigma Aldrich) followed by IRDye 680RD Donkey anti-Mouse secondary (LI-COR Biosciences). Imaging and analysis was performed using Odyssey imager (LI-COR Biosciences). Intensity of the 20 kDa proteolysis product (NS3-FLAG) was quantified to calculate 50% effective concentration (EC50) using Prism 6 (GraphPad).
To assess the ability of a small molecule to inhibit NS2 protease activity, an in vitro auto-processing assay was employed. A NS2–NS3 precursor protein (NS2–3) comprising the catalytic C-terminal domain of NS2 and the N-terminal protease domain of NS3 (JFH1 polyprotein residues 906–1209, J4 residues 904–1206) flanked by an N-terminal His tag and C-terminal FLAG tag was bacterially expressed and purified from inclusion bodies under denaturing conditions by immobilised metal ion affinity chromatography (IMAC). Upon dilution into Refolding buffer, NS2–3 forms significant secondary structure ([Foster et al., 2010]) allowing the autoprotease to become active. This can be monitored by western blot analysis of NS2–3 refolding reactions with an anti-FLAG antibody to reveal 35 kDa precursor NS2–3-FLAG and 20 kDa NS3-FLAG, one of the proteolysis products. Quantification of the proteolysis product was used as a relative measure of NS2 autoprotease activity.

Data set [2] can be described thus: Cell viability endpoint assay (Thiazolyl Blue Tetrazolium Bromide). It counts as cell-based. The following applies: human, Huh7 cells (hepatoma cell line); 72 h incubation, 11-point dose response. As for the experimental part: (§1) Cellular metabolism was quantified by 2 h incubation in 1 mM Thiazolyl Blue Tetrazolium Bromide (Sigma Aldrich) before crystals were suspended in 100 μl DMSO and absorbance at 570 nm measured using an infinite F50 platereader (Tecan). Data was normalised to DMSO control. CC50 was calculated using Prism 6 (GraphPad).
(§2) In other systems, the requirement of epoxide-based inhibitors to form a transient interaction with the protease before becoming covalently linked allows them greater selectivity and makes them more amenable to in vivo applications ([Powers et al., 2002]). To explore the potential for bis-amido based epoxide warheads to exert an inhibitory effect within a HCV model system, compounds 1–10 and cerulenin were tested for cytotoxic effects by calculating CC50 from 72 h incubation in a hepatoma cell line capable of supporting HCV replication (Supplementary Fig. 2). Of the compounds showing significant activity in vitro only 1 and 7 exerted no significant cytotoxicity up to 100 μM (Table 1).

The target of data set [3] is T1, JFH1 NS2–3 (NS2 autoprotease). More on the design: method as in Pieroni et al., 1997; Thibeault et al., 2001. The following applies: ref Pieroni et al., 1997; Thibeault et al., 2001; cited from earlier work.
In a further data set the test system is Huh7 cells. Nature of the data set: Cell viability endpoint assay (Thiazolyl Blue Tetrazolium Bromide). The following applies: 72 h incubation, 11-point dose response. It counts as cell-based. As for the experimental part:
as §1, §2

For data set [4], the system named is SGR-JFH1-NS2-5B cell line. Nature of the data set: Cellular metabolism of SGR-JFH1-NS2-5B cell line. The format is cell-based. The following applies: Telaprevir 150 nM, 48 h. As for the experimental part: (§3) Stable cell lines harbouring SGR (Supplementary material) were maintained in Dulbecco’s modified Eagle’s medium (DMEM; Sigma) supplemented with 10% foetal bovine serum (FBS), 100 IU penicillin ml^−1, 100 μg streptomycin ml^−1, 1% non-essential amino acids and 300 μg/ml G418 (Sigma) in a humidified incubator at 37 °C in 5% CO2. Cells were seeded at a density of 2 × 10^4 cells/well in a 96 well plate. After 16 h media was removed and replaced with media supplemented with the indicated concentrations of compounds with standard DMSO at 0.25%. Plates were incubated in the absence of G418 for a further 48 h.
as §1

The test system of a further data set is SGR-JFH1-NS2-5B. Nature of the data set: SGR firefly luciferase assay, NS2-dependent JFH1 replicon. The format is cell-based, Hepatitis C virus genotype 2a isolate JFH1. The following applies: Telaprevir 150 nM, 48 h. As for the experimental part:
as §3
(§4) Luciferase activity was quantified by addition of 30 μl Passive Lysis Buffer (PLB: Promega) and addition of 40 μl LarI reagent (Promega) using a BMG Labtech plate reader with light emission recorded over 6 s. Data was normalised to DMSO control. Statistical significance was determined using the Student’s t test. […]
(§5) Constructs for HCV SGRs of the genotype 1b Con1 (BM4-5) and genotype 2a JFH1 isolates containing a firefly luciferase – neomycin phosphotransferase fusion protein (ffLuc - NPT) have been previously reported (Wyles et al., 2009, Wyles et al., 2007), into which the relevant NS2 coding sequence was introduced. […] Transcripts were purified by phenol/chloroform extraction and quantified by absorbance at 260 nm. […]

The test system of data set [5] is SGR-JFH1-NS3-5B cell line. Nature of the data set: Cellular metabolism of SGR-JFH1-NS3-5B cell line. It counts as cell-based. The following applies: Telaprevir 150 nM, 48 h. As for the experimental part: as §3, §1
A further data set relates to SGR-JFH1-NS3-5B. Briefly: SGR firefly luciferase assay, NS2-independent JFH1 replicon. It counts as cell-based, Hepatitis C virus genotype 2a isolate JFH1. The following applies: Telaprevir 150 nM, 48 h. As for the experimental part:
as §3, §4, §5
In general terms: In antiviral work, replicon cells carry a viral genome segment that copies itself.

SMILES strings stand for the structures. pEC50: −log10 of the molar value.

T1 sequence (Q99IB8 906-1209): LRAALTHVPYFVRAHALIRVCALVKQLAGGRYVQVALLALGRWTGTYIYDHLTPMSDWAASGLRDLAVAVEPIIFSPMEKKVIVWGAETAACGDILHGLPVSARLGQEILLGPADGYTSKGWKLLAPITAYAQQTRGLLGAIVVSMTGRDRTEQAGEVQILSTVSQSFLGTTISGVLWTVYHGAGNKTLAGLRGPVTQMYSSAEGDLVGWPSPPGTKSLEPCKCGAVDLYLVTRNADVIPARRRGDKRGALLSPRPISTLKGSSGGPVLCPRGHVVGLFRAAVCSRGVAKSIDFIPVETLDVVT

In data set [1], `C/C=C/C/C=C/CCC(=O)[C@H]1O[C@H]1C(N)=O` [Cerulenin] showed a pEC50 of less than 3.52. Further, the “Activity against the NS2 autoprotease (in words)” value in data set [1] (JFH1 NS2–3 refolding, dose response) is listed as “no activity”. This molecule also came in with a CC50 at 72 h in data set [2] of 31.9 µM.

Turning to `CC(C)C[C@H](NC(=O)[C@H]1O[C@@H]1C(=O)O)C(=O)NCCCCN=C(N)N` [Compound E64], the “Inhibition of NS2 autoprotease” value in data set [1] (E64 300 μM) is “not inhibited”. For the same molecule, in data set [3], the “Activity against the NS2 autoprotease” value is “inactive”.

With `O=C(O)CN(CCN(CC(=O)O)CC(=O)O)CC(=O)O` [EDTA], the “Inhibition of NS2 autoprotease activity” value in data set [1] (EDTA 10 mM) is recorded as “inhibited”.

For the molecule `Cc1ccc(S(=O)(=O)N[C@@H](Cc2ccccc2)C(=O)CCl)cc1` [TPCK, Tosyl phenylalanine chloromethyl ketone], the pEC50 in data set [1] was 4.82. The molecule also returned a CC50 in the data set on Huh7 cells of 3.3 µM.

For the molecule `CCC[C@H](NC(=O)[C@@H]1[C@H]2CCC[C@H]2CN1C(=O)[C@@H](NC(=O)[C@@H](NC(=O)c1cnccn1)C1CCCCC1)C(C)(C)C)C(=O)C(=O)NC1CC1` [Telaprevir], the Cellular metabolism result in data set [4] and in data set [5] was “no effect” each time. Besides, the Luciferase activity result with SGR-JFH1-NS2-5B and with SGR-JFH1-NS3-5B was “comparable reduction” in each case.
